Patent US20110183999A1, “NOVEL POLYMORPHIC FORMS OF METHYL CARBAMATE” (BAYER SCHERING PHARMA AKTIENGESELLSCHAFT, priority 2009, published 2011)

Columns and labels:
[1] = Thermodynamic and storage stability of the solid form; format: physicochemical; conditions: also after processing to suspensions
[2] = Thermogravimetry (TGA) mass loss; format: physicochemical; conditions: heating rate 10 Kmin^−1, open platinum crucibles, nitrogen purge
Description: The TGA measurements were carried out using TGA7 and Pyris-1-TGA thermobalances from Perkin-Elmer using a heating rate of 10 Kmin^−1. The measurements were carried out in open platinum crucibles, the purge gas used was nitrogen. There was no sample preparation.

Compound	Stability of the solid form (thermodynamic / storage) ([1]; listed as mesomorphous form)	Mass loss [2]	Stability of the solid form (thermodynamic / storage) [1]
COC(=O)Nc1c(N)nc(-c2nn(Cc3ccccc3F)c3ncccc23)nc1N [mesomorphous, Methyl {4,6-diamino-2-[1-(2-fluorobenzyl)-1H-pyrazolo[3,4-b]pyridin-3-yl]pyrimidin-5-yl}-carbamate, reference compound]	metastable	about 8 % by weight	–
COC(=O)Nc1c(N)nc(-c2nn(Cc3ccccc3F)c3ncccc23)nc1N [amorphous, methyl {4,6-diamino-2-[1-(2-fluorobenzyl)-1H-pyrazolo[3,4-b]pyridin-3-yl]pyrimidin-5-yl}carbamate]	–	about 10 % by weight	–
COC(=O)Nc1c(N)nc(-c2nn(Cc3ccccc3F)c3ncccc23)nc1N [modification I, methyl {4,6-diamino-2-[1-(2-fluorobenzyl)-1H-pyrazolo[3,4-b]pyridin-3-yl]pyrimidin-5-yl}-carbamate]	–	<0.5 % by weight	thermodynamically stable and storage-stable even after processing to suspensions
COC(=O)Nc1c(N)nc(-c2nn(Cc3ccccc3F)c3ncccc23)nc1N [modification III, methyl {4,6-diamino-2-[1-(2-fluorobenzyl)-1H-pyrazolo[3,4-b]pyridin-3-yl]pyrimidin-5-yl}carbamate]	–	<0.5 % by weight	–

The next lines start with results.

Stability of the solid form (thermodynamic / storage) ([1]; listed as mesomorphous form)	Mass loss [2]	Compound	Stability of the solid form (thermodynamic / storage) [1]
–	<0.5 % by weight	COC(=O)Nc1c(N)nc(-c2nn(Cc3ccccc3F)c3ncccc23)nc1N [modification II, methyl {4,6-diamino-2-[1-(2-fluorobenzyl)-1H-pyrazolo[3,4-b]pyridin-3-yl]pyrimidin-5-yl}carbamate]	–
–	<1 % by weight	COC(=O)Nc1c(N)nc(-c2nn(Cc3ccccc3F)c3ncccc23)nc1N [modification IV, methyl {4,6-diamino-2-[1-(2-fluorobenzyl)-1H-pyrazolo[3,4-b]pyridin-3-yl]pyrimidin-5-yl}carbamate]	–
